According to US7132504B2, “Hepatitis C virus inhibitors” (Bristol-Myers Squibb Company, priority 2003, dated 2006):

What was measured:
[1] = molecular target: T1, human neutrophil elastase (HNE) (Homo sapiens, UniProt P08246); test: Specificity assay, human neutrophil elastase; format: biochemical; conditions: 2 h enzyme-inhibitor pre-incubation
T1 construct: purchased Sigma
T1 sequence (P08246 30-267): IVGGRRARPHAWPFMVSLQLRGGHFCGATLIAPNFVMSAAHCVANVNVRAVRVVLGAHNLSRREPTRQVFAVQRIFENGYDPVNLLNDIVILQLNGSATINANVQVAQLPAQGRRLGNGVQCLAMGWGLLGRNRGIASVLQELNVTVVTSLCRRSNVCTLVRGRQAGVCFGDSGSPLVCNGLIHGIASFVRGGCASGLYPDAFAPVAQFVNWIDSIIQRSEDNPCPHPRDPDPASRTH
Procedure: The specificities of compounds of the present invention were determined against a variety of serine proteases: human neutrophil elastase (HNE), porcine pancreatic elastase (PPE) and human pancreatic chymotrypsin and one cysteine protease: human liver cathepsin B. In all cases a 96-well plate format protocol using colorimetric p-nitroaniline (pNA) substrate specific for each enzyme was used as described previously (PCT Patent Application No. WO 00/09543) with some modifications to the serine protease assays. All enzymes were purchased from Sigma while the substrates were from Bachem.
Each assay included a 2 h enzyme-inhibitor pre-incubation at room temperature followed by addition of substrate and hydrolysis to ˜30% conversion as measured on a Spectramax Pro microplate reader. Compound concentrations varied from 100 to 0.4 μM depending on their potency. […]
The percentage of inhibition was calculated using the formula: [1−((UVinh−UVblank)/(UVctl−UVblank))]×100 […]

[2] = molecular target: T2, HCV NS3/4A protease complex (UniProt P27958, C1454S/C1711G, species not given); test: Recombinant HCV NS3/4A protease complex FRET peptide assay (strain not stated); format: biochemical; conditions: NS3/4A protease enzyme assay, read-out: Activity Range IC50
T2 construct: fused on or other part: Three-lysine solubilising tail at the C-terminus of NS4A
Source text: The purpose of this in vitro assay was to measure the inhibition of HCV NS3 protease complexes, derived from the BMS strain, H77 strain or J416S strain, as described below, by compounds of the present invention. This assay provides an indication of how effective compounds of the present invention would be in inhibiting HCV proteolytic activity.
Serum from an HCV-infected patient was obtained from Dr. T. Wright, San Francisco Hospital. An engineered full-length cDNA (compliment deoxyribonucleic acid) template of the HCV genome (BMS strain) was constructed from DNA fragments obtained by reverse transcription-PCR (RT-PCR) of serum RNA (ribonucleic acid) and using primers selected on the basis of homology between other genotype 1a strains. From the determination of the entire genome sequence, a genotype 1a was assigned to the HCV isolate according to the classification of Simmonds et al. (See P Simmonds, K A Rose, S Graham, S W Chan, F McOmish, B C Dow, E A Follett, P L Yap and H Marsden, J. Clin. Microbiol., 31(6), 1493–1503 (1993)). […] The infectious clones, H77 (1a genotype) and J4L6S (1b genotype) were obtained from R. Purcell (NIH) and the sequences are published in Genbank (AAB67036, see Yanagi, M., Purcell, R. H., Emerson, S. U. and Bukh, J. Proc. Natl. Acad. Sci. U.S.A. 94(16), 8738–8743 (1997); AF054247, see Yanagi, M., St Claire, M., Shapiro, M., Emerson, S. U., Purcell, R. H. and Bukh, J, Virology 244 (1), 161–172. (1998)).
The H77 and J4L6S strains were used for production of recombinant NS3/4A protease complexes. DNA encoding the recombinant HCV NS3/4A protease complex (amino acids 1027 to 1711) for these strains were manipulated as described by P. Gallinari et al. (see Gallinari P, Paolini C, Brennan D, Nardi C, Steinkuhler C, De Francesco R. Biochemistry. 38(17):5620–32, (1999)). Briefly, a three-lysine solubilizing tail was added at the 3′-end of the NS4A coding region. The cysteine in the P1 position of the NS4A–NS4B cleavage site (amino acid 1711) was changed to a glycine to avoid the proteolytic cleavage of the lysine tag. Furthermore, a cysteine to serine mutation was introduced by PCR at amino acid position 1454 to prevent the autolytic cleavage in the NS3 helicase domain. The variant DNA fragment was cloned in the pET21b bacterial expression vector (Novagen) and the NS3/4A complex was expressed in Escherichia. coli strain BL21 (DE3) (Invitrogen) following the protocol described by P. Gallinari et al. (see Gallinari P, Brennan D, Nardi C, Brunetti M, Tomei L, Steinkuhler C, De Francesco R., J Virol. 72(8):6758–69 (1998)) with modifications. Briefly, the NS3/4A protease complex expression was induced with 0.5 millimolar (mM) Isopropyl β-D-1-thiogalactopyranoside (IPTG) for 22 hours (h) at 20° C. A typical fermentation (1 Liter (L)) yielded approximately 10 grams (g) of wet cell paste. The cells were resuspended in lysis buffer (10 mL/g) consisting of 25 mM N-(2-Hydroxyethyl)Piperazine-N′-(2-Ethane Sulfonic acid) (HEPES), pH 7.5, 20% glycerol, 500 mM Sodium Chloride (NaCl), 0.5% Triton X-100, 1 microgram/milliliter (“μg/mL”) lysozyme, 5 mM Magnesium Chloride (MgCl2), 1 μg/ml Dnasel, 5 mM β-Mercaptoethanol (βME), Protease inhibitor—Ethylenediamine Tetraacetic acid (EDTA) free (Roche), homogenized and incubated for 20 minutes (min) at 4° C. The homogenate was sonicated and clarified by ultra-centrifugation at 235000 g for 1 h at 4° C. Imidazole was added to the supernatant to a final concentration of 15 mM and the pH adjusted to 8.0. The crude protein extract was loaded on a Nickel—Nitrilotriacetic acid (Ni-NTA) column pre-equilibrated with buffer B (25 mM HEPES, pH 8.0, 20% glycerol, 500 mM NaCl, 0.5% Triton X-100, 15 mM imidazole, 5 mM βME). The sample was loaded at a flow rate of 1 mL/min. The column was washed with 15 column volumes of buffer C (same as buffer B except with 0.2% Triton X-100). The protein was eluted with 5 column volumes of buffer D (same as buffer C except with 200 mM Imidazole). […]

## C=CC1C[C@]1(NC(=O)[C@@H]1C[C@@H](Oc2cc(-c3ccccc3)nc3cc(OC)ccc23)CN1C(=O)[C@@H](NC(=O)OC)C(C)(C)C)C(=O)NS(=O)(=O)N(C)Cc1ccccc1 (some centres unmarked) [Compound 9]
[1]
  IC50: 46 µM
[2]
  IC50: < 0.15 µM
